Source: article PMC6978316, “Development of chimeric peptides to facilitate the neutralisation of lipopolysaccharides during bactericidal targeting of multidrug-resistant Escherichia coli” (Communications Biology, 2020)
Like-named read-outs stand apart in the source and are kept apart here. Where a SMILES comes first, the peptide text is derived from it. Bridges are numbered along the chain shown (N, C = ends). Where no end group is shown, it is not given here.

How the values were obtained:
[1] = test system: E. coli LPS; test: BODIPY-TR-cadaverine (BC) displacement assay; type: binding, Escherichia coli; set-up: BC displacement from LPS, Mean: unit not given here; conditions: for BC displacement from LPS, Mean: mean of n = 3
Method: The affinity of SCPs (A6, G6, and N6) to E. coli LPS was detected by the fluorescent BC probe. The binding of fluorescent probe with LPS can cause fluorescence quenching. When peptides bind to LPS, BC probe can be replaced, which can result in an increase in fluorescence. Equal volumes of LPS (40 μg per ml) and BC probe (10 μM) in 50 mM Tris buffer (pH 7.4) were mixed and added into a black 96-well microtiter plate (180 μl mixture per well), followed by the addition of different concentrations of A6, G6, or N6 (20 μl per well). Ampicillin and PMB were used as the negative and positive control, respectively. Changes in fluorescence were measured by a fluorescence spectrophotometry at room temperature (excitation: 580 nm, emission: 620 nm) and the BC displacement rate was calculated.

[2] = test system: E. coli CVCC195; type: cell-based, Escherichia coli; conditions: for Fold change in MIC: E. coli CVCC195
Method: Bacterial resistance against the peptides was assessed via the MIC assays. […] After 16–18 h of incubation at 37 °C, cells from the second highest concentration showing visible growth were used to inoculate the subsequent cultures. The MIC values for drug passage cultures were obtained as described above. This process was repeated for 30 d.

[3] = test system: tested bacterial strains; test: MIC, range over all tested strains (peer review file); type: cell-based; conditions: manuscript lines quoted in the peer review file
Method: The MIC values of A6, G6, the parental peptides (N6 and LBP14), LBPN6, scramble controls (N6CK, A6CK, and G6CK), and PMB were determined by the microtiter broth dilution method. The tested strains included Gram-negative bacteria, Gram-positive bacteria, and fungi and were cultured to the logarithmic growth phase, diluted to 10^5 CFU per ml, and added into 96-well plates (90 μl per well). Peptides or antibiotic were diluted with PBS by 2-fold dilution and were added to each well (10 μl per well). Polymyxin B (PMB) and PBS were used as the positive and negative control, respectively. […] All experiments were repeated three times.

[4] = test system: pepsin; type: in vitro ADME
[5] = Biodistribution of FITC-labeled peptides (in vivo fluorescence imaging); conditions: nude mice, FITC-labeled peptide 5 mg per kg intraperitoneally
Method: The nude mice were intraperitoneally injected with 5 mg per kg FITC-labeled A6, G6, and N6, respectively. Free FITC was used as a negative control.

[6] = in vitro; conditions: mouse, serum, peptide remaining in serum, Mean, mice serum, 37 °C, RP-HPLC, mean of n = 3 (source data Fig. 2f)
Method: The thermal, pH and enzyme stability of A6 and G6 were evaluated against MDR E. coli CVCC195 using a previous method with minor revisions. The N6, A6, and G6 solutions were treated at different temperatures (20–100 °C) for 1 h, dissolved and incubated at different pH values (2–10) for 3 h, or incubated with trypsin or pepsin for 4 h. The inhibition zone diameters were measured after incubation at 37 °C for 18–24 h. The peptides were dissolved in H2O or mice serum at 37 °C to detect their serum stability and samples were removed at different time points to determine their residual activity by the inhibition zone or reverse-phase high-performance liquid chromatography (RP-HPLC) methods[62],[63].

[7] = test system: trypsin; type: in vitro ADME

For `CC1(C)S[C@@H]2[C@H](NC(=O)[C@H](N)c3ccccc3)C(=O)N2[C@H]1C(=O)O` [AMP, Ampicillin], the “BC displacement from LPS, Mean” value ([1]; 0.05 μM, LPS 40 μg per ml + BC 10 μM, 50 mM Tris pH 7.4, ex 580/em 620 nm) was -0.1364, the “BC displacement from LPS, Mean” value ([1]; 0.1 μM) was -0.2089 and the “BC displacement from LPS, Mean” value ([1]; 0.5 μM) was -1.734. For the same molecule, the “BC displacement from LPS, Mean” value ([1]; 1 μM) was -1.14, the “BC displacement from LPS, Mean” value ([1]; 5 μM) was -3.263 and the “BC displacement from LPS, Mean” value ([1]; 10 μM) was -3.845. The “BC displacement from LPS, Mean” value ([1]; 50 μM) was -4.033, the BC displacement ratio ([1]; 100 μM) was “did not displace BC probe” and the “BC displacement from LPS, Mean” value ([1]; 100 μM) was -4.227.

For `CNC(C)C1CCC(N)C(OC2C(N)CC(N)C(OC3OCC(C)(O)C(NC)C3O)C2O)O1` (centres unmarked) [Gentamicin, gentamicin], the “Fold change in MIC” value ([2]; Day 1 of serial passage) was 1 fold, the “Fold change in MIC” value ([2]; Day 2 of serial passage) was 2 fold and the “Fold change in MIC” value ([2]; Day 3 of serial passage) was 2 fold. For the same molecule, the “Fold change in MIC” value ([2]; Day 4 of serial passage) was 1 fold, the “Fold change in MIC” value ([2]; Day 5 of serial passage) was 2 fold and the “Fold change in MIC” value ([2]; Day 6 of serial passage) was 2 fold. For the same molecule, the “Fold change in MIC” value ([2]; Day 7 of serial passage) was 4 fold, the “Fold change in MIC” value ([2]; Day 8 of serial passage) was 4 fold and the “Fold change in MIC” value ([2]; Day 9 of serial passage) was 4 fold. For the same molecule, the “Fold change in MIC” value ([2]; Day 10 of serial passage) was 8 fold, the “Fold change in MIC” value ([2]; Day 11 of serial passage) was 8 fold and the “Fold change in MIC” value ([2]; Day 12 of serial passage) was 8 fold. The “Fold change in MIC” value ([2]; Day 13 of serial passage) was 8 fold, the “Fold change in MIC” value ([2]; Day 14 of serial passage) was 16 fold and the “Fold change in MIC” value ([2]; Day 15 of serial passage) was 16 fold. For the same molecule, the “Fold change in MIC” value ([2]; Day 16 of serial passage) was 16 fold, the “Fold change in MIC” value ([2]; Day 17 of serial passage) was 16 fold and the “Fold change in MIC” value ([2]; Day 18 of serial passage) was 16 fold. The “Fold change in MIC” value ([2]; Day 19 of serial passage) was 16 fold, the “Fold change in MIC” value ([2]; Day 20 of serial passage) was 16 fold and the “Fold change in MIC” value ([2]; Day 21 of serial passage) was 16 fold. For the same molecule, the “Fold change in MIC” value ([2]; Day 22 of serial passage) was 16 fold, the “Fold change in MIC” value ([2]; Day 23 of serial passage) was 16 fold and the “Fold change in MIC” value ([2]; Day 24 of serial passage) was 16 fold. For the same molecule, the “Fold change in MIC” value ([2]; Day 25 of serial passage) was 16 fold, the “Fold change in MIC” value ([2]; Day 26 of serial passage) was 16 fold and the “Fold change in MIC” value ([2]; Day 27 of serial passage) was 16 fold. For the same molecule, the “Fold change in MIC” value ([2]; Day 28 of serial passage) was 16 fold, the “Fold change in MIC” value ([2]; Day 29 of serial passage) was 16 fold and the “Fold change in MIC” value ([2]; Day 30 of serial passage) was 16 fold. The MIC elevation ([2]; at 7 d of serial passage) was 3 fold and the MIC elevation ([2]; at 15 d of serial passage) was 15 fold.

For `CC(C)[C@H](N)C(=O)N[C@H]1CSSC[C@@H](C(=O)N[C@@H](Cc2c[nH]cn2)C(=O)N[C@@H](CCCNC(=N)N)C(=O)N[C@@H](CCCNC(=N)N)C(=O)N[C@@H](C)C(=O)N[C@@H](CC(N)=O)C(=O)N[C@@H](CC(N)=O)C(=O)NCC(=O)N[C@H](C(=O)N[C@@H](CCCNC(=N)N)C(=O)N[C@H](C(=O)O)C(C)C)C(C)C)NC(=O)[C@H](CC(N)=O)NC(=O)[C@H](Cc2c[nH]c3ccccc23)NC(=O)[C@H](C)NC(=O)[C@H](Cc2ccccc2)NC(=O)CNC(=O)[C@H](CCCNC(=N)N)NC(=O)[C@H](Cc2ccc(O)cc2)NC(=O)[C@H](C(C)C)NC1=O` [N6CK] (H-VCVYRGFAWNCHRRANNGVRV-OH; disulfide 2-11; N-terminus and C-terminus assumed), the “MICs against the tested bacterial strains (range)” value [3] was “hardly any activity”.

With `CC(C)[C@@H]1NC(=O)CNC(=O)[C@H](CC(N)=O)NC(=O)[C@H](CCCNC(=N)N)NC(=O)[C@H](Cc2ccc(O)cc2)NC(=O)[C@H](C(C)C)NC(=O)[C@@H](NC(=O)[C@@H](NC(=O)[C@H](CC(N)=O)NC(=O)[C@H](Cc2c[nH]c3ccccc23)NC(=O)[C@H](C)NC(=O)[C@H](Cc2ccccc2)NC(=O)CN)C(C)C)CSSC[C@@H](C(=O)N[C@@H](Cc2cnc[nH]2)C(=O)N[C@@H](CCCNC(=N)N)C(=O)N[C@@H](CCCNC(=N)N)C(=O)N[C@@H](C)C(=O)N[C@@H](CC(N)=O)C(=O)O)NC(=O)[C@H](C(C)C)NC(=O)[C@H](CCCNC(=N)N)NC1=O` [N6] (H-GFAWNVCVYRNGVRVCHRRAN-OH; disulfide 7-16) the “antibacterial activity after pepsin (inhibition zone diameter), Mean” value [4] was 1.866, the “antibacterial activity without enzyme (inhibition zone diameter), Mean” value [4] was 2.004 and the “time after injection at which the fluorescence disappeared / peptide was excreted” value [5] was 72 h. For the same molecule, the remaining at 1 h ([6]; 1 h) was 93%, the remaining at 2 h ([6]; 2 h) was 87.5% and the remaining at 4 h ([6]; 4 h) was 77.3%. The “antibacterial activity after trypsin (inhibition zone diameter), Mean” value [7] was 0.

In the case of “RVQGRWKVRASFFKEAAAKEAAAKVCVYRGFAWNCHRRANNGVRV (disulfide 26-35) [A6CK]”, the “MICs against the tested bacterial strains (range)” value [3] was “hardly any activity”.
